Tests used:
[1] = molecular target: Dihydroorotate dehydrogenase (quinone), mitochondrial (Homo sapiens, UniProt Q02127); assay: Inhibition of human DHODH
[2] = tested on: MOLM-13; assay: Antiproliferative activity against human MOLM-13 cells; format: functional, cell-based
[3] = Half life in C57 mouse at 10 mg/kg, po or 2 mg/kg, iv; format: ADME, organism-based; details: in vivo
[4] = Metabolic stability in mouse liver microsomes assessed as half life; format: ADME, Microsome
[5] = Plasma protein binding in mouse assessed as unbound fraction; format: ADME, cell-free
[6] = Plasma protein binding in human assessed as unbound fraction; format: ADME, cell-free
[7] = Clearance in C57 mouse at 10 mg/kg, po or 2 mg/kg, iv; format: ADME, organism-based; details: in vivo
[8] = Metabolic stability in human liver microsomes assessed as half life; format: ADME, Microsome
[9] = Volume of distribution at steady state in C57 mouse at 10 mg/kg, po or 2 mg/kg, iv; format: ADME, organism-based; details: in vivo, read-out: Vdss
[10] = Oral bioavailability in C57 mouse at 10 mg/kg; format: ADME, organism-based; details: in vivo

Sequence of Dihydroorotate dehydrogenase (quinone), mitochondrial (Q02127 whole entry): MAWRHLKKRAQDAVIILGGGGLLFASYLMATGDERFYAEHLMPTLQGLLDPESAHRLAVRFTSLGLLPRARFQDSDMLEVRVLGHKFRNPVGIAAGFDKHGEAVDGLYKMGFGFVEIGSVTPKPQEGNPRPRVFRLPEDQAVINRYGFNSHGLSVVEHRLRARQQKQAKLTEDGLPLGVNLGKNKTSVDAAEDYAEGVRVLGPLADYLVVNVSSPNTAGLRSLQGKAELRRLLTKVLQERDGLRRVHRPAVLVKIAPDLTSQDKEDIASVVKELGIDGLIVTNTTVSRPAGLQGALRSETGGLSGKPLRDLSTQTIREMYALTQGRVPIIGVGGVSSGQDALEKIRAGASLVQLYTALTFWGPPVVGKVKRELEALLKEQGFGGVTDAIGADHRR

| Structure (SMILES) | IC50 [1] | IC50 ([2]; Homo sapiens, MOLM-13) | half-life [4] | half-life [8] | also measured |
| --- | --- | --- | --- | --- | --- |
| Cc1c(-c2ccc(-c3ccccc3F)cc2)nc2ccc(F)cc2c1C(=O)NC#N | 116 nM | > 3000 nM |  |  |  |
| CONC(=O)c1c(C)c(-c2ccc(-c3ccccc3F)cc2)nc2ccc(F)cc12 | 0.12 nM | 9 nM | 0.95 h | > 3 h | half-life [3]: 2.35 h; Fu [5]: 0.77%; Fu [6]: 0.55%; clearance [7]: 5.09 mL/min/kg; Vd [9]: 1.15 L/kg; bioavailability [10]: 108% |
| Cc1c(-c2ccc(-c3ccccc3F)cc2)nc2ccc(F)cc2c1C(F)F | 160 nM | > 3000 nM |  |  |  |
| COC(=O)NC(=O)c1c(C)c(-c2ccc(-c3ccccc3F)cc2)nc2ccc(F)cc12 | 1250 nM | 403 nM |  |  |  |
| Cc1c(-c2ccc(-c3ccccc3F)cc2)nc2ccc(F)cc2c1C(=O)N(C)O | 7.7 nM | 5100 nM |  |  |  |
| Cc1c(-c2ccc(-c3ccccc3F)cc2)nc2ccc(F)cc2c1C(=O)NO | 1.4 nM | 23 nM | 0.6 h | > 3 h |  |
| Cc1c(-c2ccc(-c3ccccc3F)cc2)nc2ccc(F)cc2c1C(N)=O | 47 nM | 128 nM | 1.08 h | 2.25 h |  |
| Cc1c(-c2ccc(-c3ccccc3F)cc2)nc2ccc(F)cc2c1C(=O)NS(C)(=O)=O | 32 nM | 300 nM |  |  |  |
| Cc1c(-c2ccc(-c3ccccc3F)cc2)nc2ccc(F)cc2c1-c1noc(=O)[nH]1 | 1560 nM | > 3000 nM |  |  |  |
| Cc1c(-c2ccc(-c3ccccc3F)cc2)nc2ccc(F)cc2c1C(=O)C(F)(F)F | 74 nM | > 3000 nM |  |  |  |
| Cc1c(-c2ccc(-c3ccccc3F)cc2)nc2ccc(F)cc2c1-c1nnn[nH]1 | 223 nM | > 3000 nM |  |  |  |
| Cc1c(-c2ccc(-c3ccccc3F)cc2)nc2ccc(F)cc2c1C(O)C(F)(F)F (stereo not given) | 808 nM | 640 nM |  |  |  |
| CCONC(=O)c1c(C)c(-c2ccc(-c3ccccc3F)cc2)nc2ccc(F)cc12 | 4.2 nM | 33 nM | 0.3 h | > 3 h |  |
| Cc1c(-c2ccc(-c3ccccc3F)cc2)nc2ccc(F)cc2c1CO | 166 nM | 700 nM |  |  |  |
| Cc1c(-c2ccc(-c3ccccc3F)cc2)nc2ccc(F)cc2c1C(=O)O [BREQUINAR] |  |  | > 3 h | > 3 h | Fu [5]: 0.73%; Fu [6]: 0.39%; clearance [7]: 0.2 mL/min/kg; IC50 ([2]; molm-13): 60 nM; Vd [9]: 0.3 L/kg; bioavailability [10]: 72% |
